Like-named read-outs stand apart in the source and are kept apart here.
Columns and labels:
PRMT1 [1] = target: T1, PRMT1 (Homo sapiens, UniProt Q99873); test: SAHH-coupled fluorescence assay, PRMT1 inhibition; format: biochemical; details: for IC50: PRMT1 0.1 µM, n = 2, mean ± SD; for Ki: calculated as Ki, app = IC50/(1 + [S]/Km), read-out: Ki, app
Method: A fluorescence-based SAHH-coupled assay was used to evaluate the IC50 values of inhibitors by monitoring the production of SAH from SAM after methylation. […] The fluorescence signal was monitored on a BMG CLARIOstar microplate reader with excitation at 400 nm and emission at 465 nm for 18 min. Data were processed using GraphPad Prism software 7.0. All experiments were performed in duplicate.
The fluorescence signal was monitored on a BMG CLARIOstar microplate reader with excitation at 400 nm and emission at 465 nm for 18 min. Data were processed using GraphPad Prism software 7.0. All experiments were performed in duplicate. […].

TbPRMT7 = target: T2, TbPRMT7 (Trypanosoma brucei brucei, UniProt Q582G4); test: Selectivity SAHH-coupled fluorescence assay, TbPRMT7; format: biochemical; details: at 11.1 μM
T2 construct: made in house
Text: (§1) We chose the top four potent compounds (6b and 6l–n) to investigate their selectivities against several in-house methyltransferases including protein arginine methyltransferase TbPRMT7, two members of the protein lysine methyltransferase PKMT (G9a and SETD7), protein N-terminal methyltransferase 1 (NTMT1), and a small molecule methyltransferase nicotinamide N-methyltransferase (NNMT), all of which have a SAM binding site.
A fluorescence-based SAHH-coupled assay was applied to study the effect of the compound on methyltransferase activity of PRMT7, NTMT1, SETD7, G9a, NNMT, and SAHH. For PRMT7, the assay was performed in a final well volume of 100 μL: 25 mM Tris (pH = 7.5), 50 mM KCl, 0.01% Triton X-100, 5 μM SAHH, 0.2 μM PRMT7, 3 μM AdoMet, and 15 μM ThioGlo1. After incubation for 10 min with the inhibitor, reactions were initiated by the addition of 60 μM H4-21 peptide, and the reaction was monitored for 15 min. […] After incubation for 10 min with the inhibitor, reactions were initiated by the addition of 0.5 μM GPKRIA peptide, and the reaction was monitored for 15 min. […] After incubation for 10 min with the inhibitor, reactions were initiated by the addition of 90 μM H3-21 peptide, and the reaction was monitored for 15 min. […] After incubation for 10 min with the inhibitor, reactions were initiated by the addition of 10 μM nicotinamide, and the reaction was monitored for 18 min. […]

SETD7 = target: T3, SETD7 (Homo sapiens, UniProt Q8WTS6); test: Selectivity SAHH-coupled fluorescence assay, SETD7; format: biochemical; details: at 100 μM
T3 construct: made in house
T3 sequence (Q8WTS6 1-366): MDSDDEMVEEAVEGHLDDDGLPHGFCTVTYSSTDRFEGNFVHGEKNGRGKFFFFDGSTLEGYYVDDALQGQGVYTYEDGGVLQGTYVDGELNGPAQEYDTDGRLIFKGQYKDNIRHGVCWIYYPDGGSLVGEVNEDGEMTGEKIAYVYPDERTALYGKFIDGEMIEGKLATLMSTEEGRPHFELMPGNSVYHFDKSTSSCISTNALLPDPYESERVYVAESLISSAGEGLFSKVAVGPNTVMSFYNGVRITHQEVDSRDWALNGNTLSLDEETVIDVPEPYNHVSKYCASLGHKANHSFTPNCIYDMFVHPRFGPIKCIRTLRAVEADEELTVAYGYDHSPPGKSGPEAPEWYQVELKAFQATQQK
Text: as §1
A fluorescence-based SAHH-coupled assay was applied to study the effect of the compound on methyltransferase activity of PRMT7, NTMT1, SETD7, G9a, NNMT, and SAHH. For PRMT7, the assay was performed in a final well volume of 100 μL: 25 mM Tris (pH = 7.5), 50 mM KCl, 0.01% Triton X-100, 5 μM SAHH, 0.2 μM PRMT7, 3 μM AdoMet, and 15 μM ThioGlo1. After incubation for 10 min with the inhibitor, reactions were initiated by the addition of 60 μM H4-21 peptide, and the reaction was monitored for 15 min. For NTMT1, the assay was performed in a final well volume of 100 μL: 25 mM Tris (pH = 7.5), 50 mM KCl, 0.01% Triton X-100, 5 μM SAHH, 0.1 μM NTMT1, 3 μM AdoMet, and 10 μM ThioGlo4. After incubation for 10 min with the inhibitor, reactions were initiated by the addition of 0.5 μM GPKRIA peptide, and the reaction was monitored for 15 min. For SETD7, the assay was performed in a final well volume of 100 μL: 25 mM potassium phosphate buffer (pH = 7.6), 0.01% Triton X-100, 5 μM SAHH, 1 μM SETD7, 2 μM AdoMet, and 10 μM ThioGlo1. After incubation for 10 min with the inhibitor, reactions were initiated by the addition of 90 μM H3-21 peptide, and the reaction was monitored for 15 min. For G9a, the assay was performed in a final well volume of 100 μL: 25 mM potassium phosphate buffer (pH = 7.6), 1 mM EDTA, 2 mM MgCl2, 0.01% Triton X-100, 5 μM SAHH, 0.1 μM His-G9a, 10 μM AdoMet, and 10 μM ThioGlo4. For NNMT, the assay was performed in a final well volume of 100 μL: 25 mM Tris (pH = 7.5), 50 mM KCl, 0.01% Triton X- 100, 5 μM SAHH, 0.1 μM NNMT, 10 μM AdoMet, and 10 μM ThioGlo1. After incubation for 10 min with the inhibitor, reactions were initiated by the addition of 10 μM nicotinamide, and the reaction was monitored for 18 min. The inhibitors were added at five concentrations: 100, 33.3, 11.1, 3.7, and 1.2 μM.

PRMT1 [2] = target: T1, PRMT1; details: cited from earlier work
PRMT5/MEP50 = tested on: PRMT5/MEP50; design: method as in doi:10.1158/1538-7445.AM2018-4859; details: cited from earlier work
PRMT4 = target: T4, PRMT4 (Homo sapiens, UniProt Q86X55); details: cited from earlier work
T4 construct: purchased Reaction Biology
T4 sequence (Q86X55 1-608): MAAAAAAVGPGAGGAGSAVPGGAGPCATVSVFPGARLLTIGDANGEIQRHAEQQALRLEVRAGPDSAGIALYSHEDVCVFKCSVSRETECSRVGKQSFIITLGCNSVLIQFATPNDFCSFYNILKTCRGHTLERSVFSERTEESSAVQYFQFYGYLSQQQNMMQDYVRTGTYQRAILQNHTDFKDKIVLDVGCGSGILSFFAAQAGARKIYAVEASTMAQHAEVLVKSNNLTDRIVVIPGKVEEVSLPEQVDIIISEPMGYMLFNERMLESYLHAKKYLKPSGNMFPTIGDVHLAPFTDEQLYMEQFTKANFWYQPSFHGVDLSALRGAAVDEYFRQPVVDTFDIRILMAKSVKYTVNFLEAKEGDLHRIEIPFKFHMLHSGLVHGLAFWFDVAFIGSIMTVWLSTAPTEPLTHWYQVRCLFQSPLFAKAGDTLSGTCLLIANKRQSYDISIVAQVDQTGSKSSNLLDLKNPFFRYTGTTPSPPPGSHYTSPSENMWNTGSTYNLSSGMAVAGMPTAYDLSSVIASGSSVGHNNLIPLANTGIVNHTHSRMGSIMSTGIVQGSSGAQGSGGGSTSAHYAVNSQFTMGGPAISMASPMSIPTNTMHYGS

[3] = at Km of SAM (10 µM) and H4-21 peptide (5 µM)
[4] = substrate concentration at 4 Km (footnote a)

T1 sequence (Q99873 whole entry, species assumed): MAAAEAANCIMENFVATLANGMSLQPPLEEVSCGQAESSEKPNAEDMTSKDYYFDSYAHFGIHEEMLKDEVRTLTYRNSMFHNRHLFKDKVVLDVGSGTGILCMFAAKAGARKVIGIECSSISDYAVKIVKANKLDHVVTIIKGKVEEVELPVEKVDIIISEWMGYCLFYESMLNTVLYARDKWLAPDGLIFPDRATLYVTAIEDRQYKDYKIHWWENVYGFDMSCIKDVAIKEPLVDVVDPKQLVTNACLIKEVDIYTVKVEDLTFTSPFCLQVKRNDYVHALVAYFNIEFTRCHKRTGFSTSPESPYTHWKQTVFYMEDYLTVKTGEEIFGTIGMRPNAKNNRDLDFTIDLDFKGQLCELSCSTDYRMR
T2 sequence (Q582G4 whole entry): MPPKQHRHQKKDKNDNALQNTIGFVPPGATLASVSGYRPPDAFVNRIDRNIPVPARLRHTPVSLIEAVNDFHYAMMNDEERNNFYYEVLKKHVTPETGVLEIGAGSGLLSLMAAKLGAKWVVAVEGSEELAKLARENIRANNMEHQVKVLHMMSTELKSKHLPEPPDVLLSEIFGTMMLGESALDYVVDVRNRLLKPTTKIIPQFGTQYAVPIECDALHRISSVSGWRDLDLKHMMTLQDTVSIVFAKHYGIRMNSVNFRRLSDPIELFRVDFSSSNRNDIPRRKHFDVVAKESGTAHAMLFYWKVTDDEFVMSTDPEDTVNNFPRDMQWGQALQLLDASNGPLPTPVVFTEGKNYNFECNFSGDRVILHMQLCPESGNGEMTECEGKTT

Row | SMILES | IC50 (PRMT1 [1]; [3]) [nM] | Ki (PRMT1 [1]) [nM] | other results
1 | CCNC(=N)NCCCSC[C@H]1O[C@@H](n2cnc3c(N)ncnc32)[C@H](O)[C@@H]1O [Compound 6a, 1-(3-((((2S,3S,4R,5R)-5-(6-amino-9H-purin-9-yl)-3,4-dihydroxytetrahydrofuran-2-yl)methyl)thio)propyl)-3-ethylguanidine] | 620 ± 80 | 310 ± 40 | 
2 | N=C(NCCCSC[C@H]1O[C@@H](n2cnc3c(N)ncnc32)[C@H](O)[C@@H]1O)NC1CCC1 [Compound 6b, 1-(3-((((2S,3S,4R,5R)-5-(6-amino-9H-purin-9-yl)-3,4-dihydroxytetrahydrofuran-2-yl)methyl)thio)propyl)-3-cyclobutylguanidine] |  | 45 ± 5 | inhibitory activity against PRMT7 (TbPRMT7): no inhibitory activity; inhibition at 100 µM (SETD7): > 50%; IC50 (PRMT1 [1]; [4]): 230 ± 20 nM
3 | N=C(NCCCSC[C@H]1O[C@@H](n2cnc3c(N)ncnc32)[C@H](O)[C@@H]1O)NC1CCCC1 [Compound 6c, 1-(3-((((2S,3S,4R,5R)-5-(6-amino-9H-purin-9-yl)-3,4-dihydroxytetrahydrofuran-2-yl)methyl)thio)propyl)-3-cyclopentylguanidine] | 220 ± 16 | 110 ± 8 | 
4 | N=C(NCCCSC[C@H]1O[C@@H](n2cnc3c(N)ncnc32)[C@H](O)[C@@H]1O)NC1CCCCC1 [Compound 6d, 1-(3-((((2S,3S,4R,5R)-5-(6-amino-9H-purin-9-yl)-3,4-dihydroxytetrahydrofuran-2-yl)methyl)thio)propyl)-3-cyclohexylguanidine] | 110 ± 48 | 55 ± 24 | 
5 | N=C(NCCCSC[C@H]1O[C@@H](n2cnc3c(N)ncnc32)[C@H](O)[C@@H]1O)NCC1CCCCC1 [Compound 6e, 1-(3-((((2S,3S,4R,5R)-5-(6-amino-9H-purin-9-yl)-3,4-dihydroxytetrahydrofuran-2-yl)methyl)thio)propyl)-3-(cyclohexylmethyl)guanidine] | 120 ± 26 | 60 ± 13 | 
6 | N=C(NCCCSC[C@H]1O[C@@H](n2cnc3c(N)ncnc32)[C@H](O)[C@@H]1O)Nc1ccccc1 [Compound 6f, 1-(3-((((2S,3S,4R,5R)-5-(6-amino-9H-purin-9-yl)-3,4-dihydroxytetrahydrofuran-2-yl)methyl)thio)propyl)-3-phenylguanidine] | 290 ± 10 | 150 ± 5 | fold reduction of PRMT1 inhibition compared to 6d (PRMT1 [1]; ratio of IC50 values): about 2.5 fold
7 | N=C(NCCCSC[C@H]1O[C@@H](n2cnc3c(N)ncnc32)[C@H](O)[C@@H]1O)NCc1ccccc1 [Compound 6g, 1-(3-((((2S,3S,4R,5R)-5-(6-amino-9H-purin-9-yl)-3,4-dihydroxytetrahydrofuran-2-yl)methyl)thio)propyl)-3-benzylguanidine] | 720 ± 150 | 360 ± 75 | 
8 | N=C(NCCCSC[C@H]1O[C@@H](n2cnc3c(N)ncnc32)[C@H](O)[C@@H]1O)NCCc1ccccc1 [Compound 6h, 1-(3-((((2S,3S,4R,5R)-5-(6-amino-9H-purin-9-yl)-3,4-dihydroxytetrahydrofuran-2-yl)methyl)thio)propyl)-3-phenethylguanidine] | 210 ± 60 | 110 ± 30 | 
9 | N=C(NCCCSC[C@H]1O[C@@H](n2cnc3c(N)ncnc32)[C@H](O)[C@@H]1O)NCCCc1ccccc1 [Compound 6i, 1-(3-((((2S,3S,4R,5R)-5-(6-amino-9H-purin-9-yl)-3,4-dihydroxytetrahydrofuran-2-yl)methyl)thio)propyl)-3-(3-phenylpropyl)guanidine] | 330 ± 110 | 170 ± 55 | 
10 | N=C(NCCCSC[C@H]1O[C@@H](n2cnc3c(N)ncnc32)[C@H](O)[C@@H]1O)Nc1ccccc1[N+](=O)[O-] [Compound 6j, 1-(3-((((2S,3S,4R,5R)-5-(6-amino-9H-purin-9-yl)-3,4-dihydroxytetrahydrofuran-2-yl)methyl)thio)propyl)-3-(2-nitrophenyl)guanidine] | 210 ± 10 | 110 ± 5 | 
11 | N=C(NCCCSC[C@H]1O[C@@H](n2cnc3c(N)ncnc32)[C@H](O)[C@@H]1O)Nc1ccc(Br)cc1 [Compound 6m, 1-(3-((((2S,3S,4R,5R)-5-(6-amino-9H-purin-9-yl)-3,4-dihydroxytetrahydrofuran-2-yl)methyl)thio)propyl)-3-(4-bromophenyl)guanidine] |  | 58 ± 7 | inhibition at 100 µM (SETD7): > 50%; IC50 (PRMT1 [1]; [4]): 290 ± 40 nM
12 | N=C(NCCCSC[C@H]1O[C@@H](n2cnc3c(N)ncnc32)[C@H](O)[C@@H]1O)NCc1ccc(Br)cc1 [Compound 6n, 1-(3-((((2S,3S,4R,5R)-5-(6-amino-9H-purin-9-yl)-3,4-dihydroxytetrahydrofuran-2-yl)methyl)thio)propyl)-3-(4-bromobenzyl)guanidine] |  | 52 ± 14 | inhibition at 100 µM (SETD7): > 50%; IC50 (PRMT1 [1]; [4]): 260 ± 70 nM
13 | N=C(N)NCCCCN(CCC(N)C(=O)O)C[C@H]1O[C@@H](n2cnc3c(N)ncnc32)[C@H](O)[C@@H]1O (some centres unmarked) [JD-16] |  |  | IC50 (PRMT1 [2]): 3000 nM
15 | CCCNC(CCC(N)C(=O)O)C[C@H]1O[C@@H](n2cnc3c(N)ncnc32)[C@H](O)[C@@H]1O (some centres unmarked) [Pr-SNF] |  |  | IC50 (PRMT4): 9500 nM

From PMC8230315, “A Pan-Inhibitor for Protein Arginine Methyltransferase Family Enzymes” (Biomolecules, 2021)
